Measurements taken from patent publication US9661854B2, “Molecules having pesticidal utility, and intermediates, compositions, and processes, related thereto” (Dow AgroSciences LLC, priority 2015, dated 2017).

Key:
[1] = system: Cabbage Looper (Trichoplusia ni, TRIPNI); experiment: Bioassay on Cabbage Looper (CL), 128-well diet tray assay; format: in vivo; settings: 168 h, 50 μg/cm^2 on artificial diet, second instar larvae, 25° C., five to seven days, average of eight wells, read-out: CL % Control (or Mortality) rating
Method: (§1) Example A: Bioassays on Beet Armyworm (Spodoptera exigua, LAPHEG) (“BAW”) and Cabbage Looper (Trichoplusia ni, TRIPNI) (“CL”)
(§2) Certain molecules disclosed in this document were tested against BAW and CL using procedures described in the following examples. In the reporting of the results, the “BAW & CL Rating Table” was used (See Table Section).
Bioassays on CL were conducted using a 128-well diet tray assay. One to five second instar CL larvae were placed in each well (3 mL) of the diet tray that had been previously filled with 1 mL of artificial diet to which 50 μg/cm^2 of the test molecule (dissolved in 50 μL of 90:10 acetone-water mixture) had been applied (to each of eight wells) and then allowed to dry. Trays were covered with a clear self-adhesive cover, vented to allow gas exchange, and held at 25° C., 14:10 light-dark for five to seven days. Percent mortality was recorded for the larvae in each well; activity in the eight wells was then averaged. The results are indicated in the table entitled “Table ABC: Biological Results” (See Table Section).

[2] = system: Beet Armyworm (Spodoptera exigua, LAPHEG); experiment: Bioassay on Beet Armyworm (BAW), 128-well diet tray assay; format: in vivo; settings: 168 h, 50 μg/cm^2 on artificial diet, second instar larvae, 25° C., five to seven days, average of eight wells, read-out: BAW % Control (or Mortality) rating
Method: as §1, §2
Bioassays on BAW were conducted using a 128-well diet tray assay. One to five second instar BAW larvae were placed in each well (3 mL) of the diet tray that had been previously filled with 1 mL of artificial diet to which 50 μg/cm^2 of the test molecule (dissolved in 50 μL of 90:10 acetone-water mixture) had been applied (to each of eight wells) and then allowed to dry. Trays were covered with a clear self-adhesive cover, vented to allow gas exchange, and held at 25° C., 14:10 light-dark for five to seven days. Percent mortality was recorded for the larvae in each well; activity in the eight wells was then averaged. The results are indicated in the table entitled “Table ABC: Biological Results” (See Table Section).

Structure (SMILES)	mortality at 50 µg/cm2 [1]	mortality at 50 µg/cm2 [2]
Cc1ccc(C(C)C)c(N2C(=O)CS/C2=N\C(=O)Nc2ccc(CCc3ncn(-c4ccc(OC(F)(F)F)cc4)n3)cc2)c1 [F1, (Z)-1-(3-(2-isopropyl-5-methylphenyl)-4-oxothiazolidin-2-ylidene)-3-(4-(2-(1-(4-(trifluoromethoxy)phenyl)-1H-1,2,4-triazol-3-yl)ethyl)phenyl)urea]	50 to 100%	50 to 100%
Cc1ccc(C(C)C)c(N2C(=O)CS/C2=N\C(=O)Nc2ccc(CCc3ncn(-c4ccc(OC(F)(F)F)cc4)n3)c(C)c2)c1 [F2, (Z)-1-(3-(2-Isopropyl-5-methylphenyl)-4-oxothiazolidin-2-ylidene)-3-(3-methyl-4-(2-(1-(4-(trifluoromethoxy)phenyl)-1H-1,2,4-triazol-3-yl)ethyl)phenyl)urea]	50 to 100%	50 to 100%
Cc1ccc(F)c(N2C(=O)CS/C2=N\C(=O)Nc2ccc(CCc3ncn(-c4ccc(OC(F)(F)F)cc4)n3)cc2)c1 [F3, (Z)-1-(3-(2-Fluoro-5-methylphenyl)-4-oxothiazolidin-2-ylidene)-3-(4-(2-(1-(4-(trifluoromethoxy)phenyl)-1H-1,2,4-triazol-3-yl)ethyl)phenyl)urea]	50 to 100%	50 to 100%
Cc1ccc(C(F)(F)F)c(N2C(=O)CS/C2=N\C(=O)Nc2ccc(CCc3ncn(-c4ccc(OC(F)(F)F)cc4)n3)cc2)c1 [F5, (Z)-1-(3-(5-Methyl-2-(trifluoromethyl)phenyl)-4-oxothiazolidin-2-ylidene)-3-(4-(2-(1-(4-(trifluoromethoxy)phenyl)-1H-1,2,4-triazol-3-yl)ethyl)phenyl)urea]	50 to 100%	50 to 100%
Cc1ccc(Cl)c(N2C(=O)CS/C2=N\C(=O)Nc2ccc(CCc3ncn(-c4ccc(OC(F)(F)F)cc4)n3)cc2)c1 [F6, (Z)-1-(3-(2-Chloro-5-methylphenyl)-4-oxothiazolidin-2-ylidene)-3-(4-(2-(1-(4-(trifluoromethoxy)phenyl)-1H-1,2,4-triazol-3-yl)ethyl)phenyl)urea]	50 to 100%	50 to 100%
CCCc1ccc(C)cc1N1C(=O)CS/C1=N\C(=O)Nc1ccc(CCc2ncn(-c3ccc(OC(F)(F)F)cc3)n2)cc1 [F7, (Z)-1-(3-(5-Methyl-2-propylphenyl)-4-oxothiazolidin-2-ylidene)-3-(4-(2-(1-(4-(trifluoromethoxy)phenyl)-1H-1,2,4-triazol-3-yl)ethyl)phenyl)urea]	50 to 100%	50 to 100%
CCOc1ccc(C)cc1N1C(=O)CS/C1=N\C(=O)Nc1ccc(CCc2ncn(-c3ccc(OC(F)(F)F)cc3)n2)cc1 [F8, (Z)-1-(3-(2-Ethoxy-5-methylphenyl)-4-oxothiazolidin-2-ylidene)-3-(4-(2-(1-(4-(trifluoromethoxy)phenyl)-1H-1,2,4-triazol-3-yl)ethyl)phenyl)urea]	50 to 100%	50 to 100%
Cc1cc(N2C(=O)CS/C2=N\C(=O)Nc2ccc(CCc3ncn(-c4ccc(OC(F)(F)F)cc4)n3)cc2)c(C(C)C)cc1F [F9, (Z)-1-(3-(4-Fluoro-2-isopropyl-5-methylphenyl)-4-oxothiazolidin-2-ylidene)-3-(4-(2-(1-(4-(trifluoromethoxy)phenyl)-1H-1,2,4-triazol-3-yl)ethyl)phenyl)urea]	50 to 100%	50 to 100%
CCC(C)Oc1ccc(C)cc1N1C(=O)CS/C1=N\C(=O)Nc1ccc(CCc2ncn(-c3ccc(OC(F)(F)F)cc3)n2)cc1 (stereo not shown) [F10, (Z)-1-(3-(2-(sec-Butoxy)-5-methylphenyl)-4-oxothiazolidin-2-ylidene)-3-(4-(2-(1-(4-(trifluoromethoxy)phenyl)-1H-1,2,4-triazol-3-yl)ethyl)phenyl)urea]	50 to 100%	50 to 100%
Cc1ccc(OC(C)C)c(N2C(=O)CS/C2=N\C(=O)Nc2ccc(CCc3ncn(-c4ccc(OC(F)(F)F)cc4)n3)cc2)c1 [F11, (Z)-1-(3-(2-Isopropoxy-5-methylphenyl)-4-oxothiazolidin-2-ylidene)-3-(4-(2-(1-(4-(trifluoromethoxy)phenyl)-1H-1,2,4-triazol-3-yl)ethyl)phenyl)urea]	50 to 100%	50 to 100%
Cc1ccc(OC(F)(F)F)c(N2C(=O)CS/C2=N\C(=O)Nc2ccc(CCc3ncn(-c4ccc(OC(F)(F)F)cc4)n3)cc2)c1 [F12, (Z)-1-(3-(5-Methyl-2-(trifluoromethoxy)phenyl)-4-oxothiazolidin-2-ylidene)-3-(4-(2-(1-(4-(trifluoromethoxy)phenyl)-1H-1,2,4-triazol-3-yl)ethyl)phenyl)urea]	50 to 100%	50 to 100%
Cc1ccc(OCC(F)(F)F)c(N2C(=O)CS/C2=N\C(=O)Nc2ccc(CCc3ncn(-c4ccc(OC(F)(F)F)cc4)n3)cc2)c1 [F13, (Z)-1-(3-(5-Methyl-2-(2,2,2-trifluoroethoxy)phenyl)-4-oxothiazolidin-2-ylidene)-3-(4-(2-(1-(4-(trifluoromethoxy)phenyl)-1H-1,2,4-triazol-3-yl)ethyl)phenyl)urea]	50 to 100%	50 to 100%
COC(=O)c1cc(CCc2ncn(-c3ccc(OC(F)(F)F)cc3)n2)ccc1NC(=O)/N=C1\SCC(=O)N1c1cc(C)ccc1C(C)C [F16, Methyl (Z)-2-(3-(3-(2-isopropyl-5-methylphenyl)-4-oxothiazolidin-2-ylidene)ureido)-5-(2-(1-(4-(trifluoromethoxy)phenyl)-1H-1,2,4-triazol-3-yl)ethyl)benzoate]	50 to 100%	50 to 100%
Cc1ccc(C(C)C)c(N2C(=O)CS/C2=N\C(=O)Nc2ccc(CCc3ncn(-c4ccc(OC(F)(F)F)cc4)n3)cc2F)c1 [F17, (Z)-1-(2-Fluoro-4-(2-(1-(4-(trifluoromethoxy)phenyl)-1H-1,2,4-triazol-3-yl)ethyl)phenyl)-3-(3-(2-isopropyl-5-methylphenyl)-4-oxothiazolidin-2-ylidene)urea]	50 to 100%	50 to 100%
Cc1ccc(C(C)C)c(N2C(=O)CS/C2=N\C(=O)Nc2ccc(CCc3ncn(-c4ccc(OC(F)(F)F)cc4)n3)cc2Cl)c1 [F18, (Z)-1-(2-Chloro-4-(2-(1-(4-(trifluoromethoxy)phenyl)-1H-1,2,4-triazol-3-yl)ethyl)phenyl)-3-(3-(2-isopropyl-5-methylphenyl)-4-oxothiazolidin-2-ylidene)urea]	50 to 100%	50 to 100%
Cc1ccc(C(C)C)c(N2C(=O)CS/C2=N\C(=O)Nc2c(F)cc(CCc3ncn(-c4ccc(OC(F)(F)F)cc4)n3)cc2F)c1 [F19, (Z)-1-(2,6-Difluoro-4-(2-(1-(4-(trifluoromethoxy)phenyl)-1H-1,2,4-triazol-3-yl)ethyl)phenyl)-3-(3-(2-isopropyl-5-methylphenyl)-4-oxothiazolidin-2-ylidene)urea]	50 to 100%	50 to 100%
COc1cc(CCc2ncn(-c3ccc(OC(F)(F)F)cc3)n2)ccc1NC(=O)/N=C1\SCC(=O)N1c1cc(C)ccc1C(C)C [F20, (Z)-1-(3-(2-Isopropyl-5-methylphenyl)-4-oxothiazolidin-2-ylidene)-3-(2-methoxy-4-(2-(1-(4-(trifluoromethoxy)phenyl)-1H-1,2,4-triazol-3-yl)ethyl)phenyl)urea]	50 to 100%	50 to 100%
COCc1ccc(C)cc1N1C(=O)CS/C1=N\C(=O)Nc1ccc(CCc2ncn(-c3ccc(OC(F)(F)F)cc3)n2)cc1 [F21, (Z)-1-(3-(2-(Methoxymethyl)-5-methylphenyl)-4-oxothiazolidin-2-ylidene)-3-(4-(2-(1-(4-(trifluoromethoxy)phenyl)-1H-1,2,4-triazol-3-yl)ethyl)phenyl)urea]	50 to 100%	50 to 100%
COCc1ccc(C)cc1N1C(=O)CS/C1=N\C(=O)Nc1ccc(CCc2ncn(-c3ccc(OC(F)(F)F)cc3)n2)cc1F [F22, (Z)-1-(2-Fluoro-4-(2-(1-(4-(trifluoromethoxy)phenyl)-1H-1,2,4-triazol-3-yl)ethyl)phenyl)-3-(3-(2-(methoxymethyl)-5-methylphenyl)-4-oxothiazolidin-2-ylidene)urea]	50 to 100%	50 to 100%
CCC(C)Oc1ccc(C)cc1N1C(=O)CS/C1=N\C(=O)Nc1ccc(CCc2ncn(-c3ccc(OC(F)(F)F)cc3)n2)cc1F (stereo not shown) [F24, (Z)-1-(3-(2-(sec-Butoxy)-5-methylphenyl)-4-oxothiazolidin-2-ylidene)-3-(2-fluoro-4-(2-(1-(4-(trifluoromethoxy)phenyl)-1H-1,2,4-triazol-3-yl)ethyl)phenyl)urea]	50 to 100%	50 to 100%
